Results from ChEMBL document CHEMBL1201862, “PubChem BioAssay data set” (2004).
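Exposure lasted 48 hours, with cells grown in 96-well plates and compounds tested at five concentrations. The concentration for 50% growth inhibition is given as GI50.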 The source made the active and inactive calls. Cut-off read from the data, not from the text of the source: active = GI50 up to about 1.1 µM and inactive = higher.

Assays:
Experiment in all cases: NCI-60 cell line screen, 48 h
MDA-MB-231 = tested on: MDA-MB-231
BT-549 = tested on: BT-549
SK-MEL-5 = tested on: SK-MEL-5
MDA-MB-435 = tested on: MDA-MB-435
A549 = tested on: A549
SN12C = tested on: SN12C
NCI-H226 = tested on: NCI-H226
OVCAR-8 = tested on: OVCAR-8
CAKI-1 = tested on: CAKI-1
MDA-N = tested on: MDA-N
Hs-578T = tested on: Hs-578T
SK-MEL-28 = tested on: SK-MEL-28
NCI-H460 = tested on: NCI-H460
HL-60 = tested on: HL-60
RXF 393 = tested on: RXF 393
UO-31 = tested on: UO-31
PC-3 = tested on: PC-3
M14 = tested on: M14
CCRF-CEM = tested on: CCRF-CEM

SMILES | GI50 (MDA-MB-231) | GI50 (BT-549) | GI50 (SK-MEL-5) | GI50 (MDA-MB-435) | GI50 (A549) | GI50 (SN12C) | GI50 (NCI-H226) | GI50 (OVCAR-8) | GI50 (CAKI-1) | GI50 (MDA-N) | GI50 (Hs-578T) | GI50 (SK-MEL-28) | GI50 (NCI-H460) | GI50 (HL-60) | GI50 (RXF 393) | GI50 (UO-31) | GI50 (PC-3) | GI50 (M14) | GI50 (CCRF-CEM)
NS(=O)(=O)c1ccc(NCc2cnc3ccccc3c2)cc1 | > 100 µM (inactive) | 62.8 µM (inactive) | > 100 µM (inactive) | > 100 µM (inactive) | > 100 µM (inactive) | > 100 µM (inactive) | > 100 µM (inactive) | 34.7 µM (inactive) | > 100 µM (inactive) | > 100 µM (inactive) | 51.8 µM (inactive) | > 100 µM (inactive) | > 100 µM (inactive) | 0.412 µM (active) | > 100 µM (inactive) | > 100 µM (inactive) | > 100 µM (inactive) | > 100 µM (inactive) | 
CNC(=O)CNC(=O)N(C[C@@H]1CCCN1C(=O)[C@H](CC(C)C)NC(=O)OC(C)(C)C)C(C)C | > 100 µM (inactive) | > 100 µM (inactive) | > 100 µM (inactive) | > 100 µM (inactive) | > 100 µM (inactive) | > 100 µM (inactive) | > 100 µM (inactive) | > 100 µM (inactive) | > 100 µM (inactive) | > 100 µM (inactive) | > 100 µM (inactive) | > 100 µM (inactive) | > 100 µM (inactive) | > 100 µM (inactive) | > 100 µM (inactive) | > 100 µM (inactive) | > 100 µM (inactive) | > 100 µM (inactive) | > 100 µM (inactive)
O=C1NC2(CN3CCC2CC3)C(=O)N1CN(Cc1ccccc1)c1ccccc1 (configuration not stated) | > 100 µM (inactive) | > 100 µM (inactive) | 85.7 µM (inactive) | > 100 µM (inactive) | 81.1 µM (inactive) | 71 µM (inactive) | > 100 µM (inactive) | 57 µM (inactive) | > 100 µM (inactive) | > 100 µM (inactive) | > 100 µM (inactive) | > 100 µM (inactive) | 29.4 µM (inactive) | 21.1 µM (inactive) | 27 µM (inactive) | 25.1 µM (inactive) | > 100 µM (inactive) | 33.7 µM (inactive) | 
COc1ccc2c(c1O)[C@@]13CCCC=C1[C@@H](C2)[N+](C)(C)CC3 | > 100 µM (inactive) | 46.7 µM (inactive) | 91.4 µM (inactive) | > 100 µM (inactive) | > 100 µM (inactive) | > 100 µM (inactive) | > 100 µM (inactive) | > 100 µM (inactive) | > 100 µM (inactive) | > 100 µM (inactive) | 77.3 µM (inactive) | > 100 µM (inactive) | > 100 µM (inactive) | 56.4 µM (inactive) | > 100 µM (inactive) | > 100 µM (inactive) | > 100 µM (inactive) | > 100 µM (inactive) | > 100 µM (inactive)
CC1(c2ccc(Cl)cc2)C=C(c2ccc(Cl)cc2)C(C#N)=C(C(C#N)C#N)N1.CNC (configuration not stated) | 24.9 µM (inactive) | 21.2 µM (inactive) | 14.2 µM (inactive) | 17.5 µM (inactive) | 19.2 µM (inactive) | 18.3 µM (inactive) | 19.8 µM (inactive) | 14.5 µM (inactive) | 16.9 µM (inactive) | 17.3 µM (inactive) | 9.82 µM (inactive) | 24.1 µM (inactive) | 20.4 µM (inactive) | 13.1 µM (inactive) | 18.7 µM (inactive) | 16.4 µM (inactive) | 16.6 µM (inactive) | 18.6 µM (inactive) | 5.02 µM (inactive)
COc1cc(/C=C2\C(=O)N(c3ccc(Cl)cc3)C(c3ccccc3)S2(=O)=O)cc(OC)c1OC (configuration not stated) | > 69.3 µM (inactive) | 14.3 µM (inactive) | 1.05 µM (active) | 0.394 µM (active) | 17.8 µM (inactive) | > 25.8 µM (inactive) | > 84.1 µM (inactive) | 93.1 µM (inactive) | 38.5 µM (inactive) | 2.04 µM (inactive) | > 100 µM (inactive) | > 54.3 µM (inactive) | 3.95 µM (inactive) | 5.04 µM (inactive) | 22.4 µM (inactive) | 3.48 µM (inactive) | 22.8 µM (inactive) | 0.522 µM (active) | 8.53 µM (inactive)
CCCCCCCCCCCCN1[C@H]2CCC[C@H]2C(O)[C@@H]2CCC[C@@H]21 (some centres not stated) | > 100 µM (inactive) | 42.3 µM (inactive) | 58.2 µM (inactive) | > 100 µM (inactive) | > 100 µM (inactive) | 52.8 µM (inactive) | 96.6 µM (inactive) | > 100 µM (inactive) | > 100 µM (inactive) | > 100 µM (inactive) | > 100 µM (inactive) | > 100 µM (inactive) | > 100 µM (inactive) | 33.8 µM (inactive) | > 100 µM (inactive) |  | 88.5 µM (inactive) | > 100 µM (inactive) | > 100 µM (inactive)
O=c1c2ccccc2nc(Cc2nc(-c3ccc(Cl)cc3)cs2)n1-c1ccc(Cl)cc1 | > 100 µM (inactive) | 82.2 µM (inactive) | 34.4 µM (inactive) | 46.3 µM (inactive) | 50.6 µM (inactive) |  | 88.5 µM (inactive) | 82.6 µM (inactive) | > 100 µM (inactive) | 41.4 µM (inactive) | > 100 µM (inactive) | 23.8 µM (inactive) | 46.2 µM (inactive) | 66.2 µM (inactive) | > 100 µM (inactive) | > 100 µM (inactive) | 48 µM (inactive) | > 100 µM (inactive) | 17.6 µM (inactive)
O=C1N/C(=N/N=C/C(O)C(O)C(O)C(O)CO)N/C1=C\c1cccs1 (configuration not stated) | > 100 µM (inactive) | > 100 µM (inactive) | > 100 µM (inactive) | > 100 µM (inactive) | 94.4 µM (inactive) | > 100 µM (inactive) | > 100 µM (inactive) | > 100 µM (inactive) | > 100 µM (inactive) | > 100 µM (inactive) | > 100 µM (inactive) | > 100 µM (inactive) | > 100 µM (inactive) | > 100 µM (inactive) | > 100 µM (inactive) |  | > 100 µM (inactive) | > 100 µM (inactive) | > 100 µM (inactive)
Cc1ccc(C)n1-c1ccccc1C1C=Cn2c3c1c(=O)c(OC(C)C)c(OC(C)C)c-3n[nH]c2=O (configuration not stated) | 33.6 µM (inactive) | 32.7 µM (inactive) | 5.01 µM (inactive) | 21.8 µM (inactive) | 23.4 µM (inactive) | 42 µM (inactive) | 21.4 µM (inactive) | 33.7 µM (inactive) | 31.8 µM (inactive) | 37.6 µM (inactive) | 35.4 µM (inactive) | 17.5 µM (inactive) | 37.6 µM (inactive) | 5.45 µM (inactive) | 23 µM (inactive) | 64.3 µM (inactive) | 10.3 µM (inactive) | 25.1 µM (inactive) | 13.3 µM (inactive)
CO[C@@H](c1ccccc1)[C@H](O)[C@](O)(c1ccccc1)P(=O)(OC)OC | > 100 µM (inactive) | 47.6 µM (inactive) | > 100 µM (inactive) | > 100 µM (inactive) | > 100 µM (inactive) | > 100 µM (inactive) | > 100 µM (inactive) | > 100 µM (inactive) | > 100 µM (inactive) | > 100 µM (inactive) | > 100 µM (inactive) | > 100 µM (inactive) | > 100 µM (inactive) | > 100 µM (inactive) | > 100 µM (inactive) | > 100 µM (inactive) | > 100 µM (inactive) | > 100 µM (inactive) | > 100 µM (inactive)
CNC(=S)NNc1ncnc2c1ncn2-c1ccc(C)cc1 | 43.9 µM (inactive) | > 100 µM (inactive) | > 100 µM (inactive) | > 100 µM (inactive) | > 100 µM (inactive) | > 100 µM (inactive) | > 100 µM (inactive) | > 100 µM (inactive) | > 100 µM (inactive) | > 100 µM (inactive) | > 100 µM (inactive) | > 100 µM (inactive) | > 100 µM (inactive) | > 100 µM (inactive) | > 100 µM (inactive) | > 100 µM (inactive) | > 100 µM (inactive) | > 100 µM (inactive) | > 100 µM (inactive)
c1cc(-c2ccc(-c3ccc(C4=NC5CCCCC5N4)cc3)o2)ccc1C1=NC2CCCCC2N1 (configuration not stated) | 1.5 µM (inactive) | 2.11 µM (inactive) | 1.57 µM (inactive) | 1.86 µM (inactive) | 1.71 µM (inactive) | 1.47 µM (inactive) | 1.85 µM (inactive) | 1.79 µM (inactive) | 5.92 µM (inactive) | 1.67 µM (inactive) | 1.55 µM (inactive) | 1.83 µM (inactive) | 1.84 µM (inactive) | 2.31 µM (inactive) | 1.95 µM (inactive) | 2.99 µM (inactive) | 1.46 µM (inactive) | 1.64 µM (inactive) | 1.79 µM (inactive)
COc1ccc2c(c1)C(N)=C(c1ccccc1OC)C2=O | > 100 µM (inactive) | > 100 µM (inactive) |  | 53.6 µM (inactive) |  | > 100 µM (inactive) | > 100 µM (inactive) | > 100 µM (inactive) | > 100 µM (inactive) | > 100 µM (inactive) | > 100 µM (inactive) | > 100 µM (inactive) | > 100 µM (inactive) | 23.5 µM (inactive) | 25.1 µM (inactive) | 89.7 µM (inactive) | 85.7 µM (inactive) | > 100 µM (inactive) | > 100 µM (inactive)
CC1(C)CC(=O)C(=CN2C(=O)CNC2=S)C(=O)C1 | > 100 µM (inactive) | > 100 µM (inactive) | > 100 µM (inactive) | > 100 µM (inactive) | > 100 µM (inactive) | > 100 µM (inactive) | > 100 µM (inactive) | > 100 µM (inactive) | > 100 µM (inactive) | > 100 µM (inactive) | > 100 µM (inactive) |  | > 100 µM (inactive) | > 100 µM (inactive) | 85.9 µM (inactive) | > 100 µM (inactive) | > 100 µM (inactive) | > 100 µM (inactive) | > 100 µM (inactive)
